These results are taken from patent publication US20240239861A1, “GLUCAGON-RECEPTOR SELECTIVE POLYPEPTIDES AND METHODS OF USE THEREOF” (i2O Therapeutics, Inc., priority 2016, published 2024).

Like-named read-outs stand apart in the source and are kept apart here. *1 amine or outer side, *2 acyl side, *3 side chain or, on linkers, in order; H or OH if unused. Where a SMILES comes first, the peptide text is derived from it. Side-chain parts run from the residue outwards. [ ]: non-standard residue; d: D form. The star is where a group is joined. C18 diacid = O=C(O)CCCCCCCCCCCCCCCCC(=O)*; γGlu = O=C(O)[C@H](CCC(=O)[*:2])N[*:1]; AEEA = NCCOCCOCC(=O)O; Aib = CC(C)(N)C(=O)O Where only a bound is given, the exact number is not on record here.

One test addresses human GLP-1R (Homo sapiens, UniProt P43220). Put plainly: Peptide-receptor mediated cAMP accumulation (LANCE Ultra cAMP) in CHO-K1 cells transfected with human GLP-1R. Format: cell-based. (Changes in cAMP serve as a functional read-out for many G protein-coupled receptors.)
A further test has as its target human GCGR (Homo sapiens, UniProt P47871). Put plainly: Peptide-receptor mediated cAMP accumulation (LANCE Ultra cAMP) in CHO-K1 cells transfected with human GCGR. It counts as cell-based.
The mark [1] stands for this setting: Table 7, GLP-1R, read-out: GLP-1R pEC50 (converted).
The mark [2] stands for this setting: read-out: GluR pEC50 (converted).
[3] abbreviates: hGLP1 pEC50 (cAMP mean (n = 3): 11 point curve starting at 1 nM, Table 3).

human GLP-1R, sequence (P43220 24-463): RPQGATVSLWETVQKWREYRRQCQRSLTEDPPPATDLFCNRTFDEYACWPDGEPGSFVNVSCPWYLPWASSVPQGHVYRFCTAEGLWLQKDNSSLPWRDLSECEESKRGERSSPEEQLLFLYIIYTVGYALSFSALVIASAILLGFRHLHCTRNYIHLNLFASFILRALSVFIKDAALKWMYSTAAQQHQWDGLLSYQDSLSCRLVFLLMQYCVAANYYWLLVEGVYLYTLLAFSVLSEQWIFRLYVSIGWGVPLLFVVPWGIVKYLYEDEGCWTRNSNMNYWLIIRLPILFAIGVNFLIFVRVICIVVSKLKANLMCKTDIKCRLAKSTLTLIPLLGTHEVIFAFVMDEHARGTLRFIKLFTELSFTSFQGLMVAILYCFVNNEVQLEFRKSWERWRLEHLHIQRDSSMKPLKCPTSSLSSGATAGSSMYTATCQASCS
human GCGR, sequence (P47871 26-477): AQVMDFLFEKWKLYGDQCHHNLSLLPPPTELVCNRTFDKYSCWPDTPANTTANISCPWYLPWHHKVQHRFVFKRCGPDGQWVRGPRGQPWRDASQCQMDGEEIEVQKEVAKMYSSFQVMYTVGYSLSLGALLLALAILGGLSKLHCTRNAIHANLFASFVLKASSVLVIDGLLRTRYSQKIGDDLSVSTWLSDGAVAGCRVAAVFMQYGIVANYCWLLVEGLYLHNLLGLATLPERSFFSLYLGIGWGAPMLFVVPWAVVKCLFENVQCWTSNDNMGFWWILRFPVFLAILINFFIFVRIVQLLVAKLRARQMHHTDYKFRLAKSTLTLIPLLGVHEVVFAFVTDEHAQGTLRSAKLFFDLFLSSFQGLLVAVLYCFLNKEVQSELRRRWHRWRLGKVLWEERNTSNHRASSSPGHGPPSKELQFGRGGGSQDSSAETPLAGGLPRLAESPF

As for `CCCCCCCCCCCCCCCC(=O)N[C@@H](CCC(=O)NCCCC[C@H](NC(=O)[C@H](CC(=O)O)NC(=O)[C@H](CC(C)C)NC(=O)[C@H](Cc1ccc(O)cc1)NC(=O)[C@H](CCCCN)NC(=O)[C@H](CO)NC(=O)[C@H](Cc1ccc(O)cc1)NC(=O)[C@H](CC(=O)O)NC(=O)[C@H](CO)NC(=O)[C@@H](NC(=O)[C@H](Cc1ccccc1)NC(=O)[C@@H](NC(=O)CNC(=O)[C@H](Cc1c[nH]cn1)NC(=O)[C@H](CO)NC(=O)[C@@H](N)Cc1ccc(O)cc1)[C@@H](C)O)[C@@H](C)O)C(=O)N[C@@H](CCCCN)C(=O)N[C@@H](CCCNC(=N)N)C(=O)N[C@@H](C)C(=O)N[C@@H](CCC(N)=O)C(=O)N[C@@H](CCC(=O)O)C(=O)N[C@@H](Cc1ccccc1)C(=O)N[C@H](C(=O)N[C@H](C(=O)N[C@@H](Cc1c[nH]c2ccccc12)C(=O)N[C@@H](CC(C)C)C(=O)N[C@@H](CCC(=O)O)C(=O)N[C@@H](CC(=O)O)C(=O)N[C@@H](CCC(=O)O)C(=O)N1CCC[C@H]1C(=O)N[C@@H](CO)C(=O)N[C@@H](CO)C(=O)NCC(=O)N[C@@H](C)C(=O)N1CCC[C@H]1C(=O)N1CCC[C@H]1C(=O)N1CCC[C@H]1C(=O)N[C@@H](CO)C(=O)O)[C@@H](C)CC)C(C)C)C(=O)O` [Compound B26], the figures for the EC50 at human GLP-1R (setting [1]) and at human GCGR (setting [2]) were over 1000 nM and 0.01 nM, respectively.

Regarding `CC(C)C[C@H](NC(=O)[C@H](Cc1c[nH]c2ccccc12)NC(=O)[C@H](CCCCN)NC(=O)[C@H](CO)NC(=O)[C@H](Cc1c[nH]cn1)NC(=O)[C@H](CC(=O)O)NC(=O)[C@H](CO)NC(=O)[C@@H](NC(=O)[C@H](Cc1ccccc1)NC(=O)[C@@H](NC(=O)CNC(=O)[C@H](Cc1c[nH]cn1)NC(=O)[C@@H](NC(=O)[C@@H](N)Cc1ccc(O)cc1)[C@@H](C)O)[C@@H](C)O)[C@@H](C)O)C(=O)N[C@@H](CC(=O)O)C(=O)NC(C)(C)C(=O)N[C@@H](CCCCN)C(=O)N[C@@H](CCCNC(=N)N)C(=O)N[C@@H](C)C(=O)N[C@@H](CCC(N)=O)C(=O)N[C@@H](CCC(=O)O)C(=O)N[C@@H](Cc1ccccc1)C(=O)N[C@H](C(=O)NC(C)(C)C(=O)N[C@@H](Cc1c[nH]c2ccccc12)C(=O)N[C@@H](CC(C)C)C(=O)N[C@@H](CCC(=O)O)C(=O)N[C@@H](CC(=O)O)C(=O)N[C@@H](CCC(=O)O)C(=O)N1CCC[C@H]1C(=O)N[C@@H](CO)C(=O)N[C@@H](CO)C(=O)NCC(=O)N[C@@H](C)C(=O)N1CCC[C@H]1C(=O)N1CCC[C@H]1C(=O)N1CCC[C@H]1C(=O)N[C@@H](CO)C(=O)O)C(C)C` [Compound A34] (H-YTHGTFTSDHSKWLD[Aib]KRAQEFV[Aib]WLEDEPSSGAPPPS-OH; N-terminus assumed), the figures for the EC50 on human GLP-1R (setting [3]) and at human GCGR (Table 3) were over 1 nM and 0.0501 nM, respectively.

Regarding `CCCCCCCCCCCCCCCC(=O)N[C@@H](CCC(=O)NCCCC[C@H](NC(=O)[C@H](CC(=O)O)NC(=O)[C@H](CC(C)C)NC(=O)[C@H](Cc1ccc(O)cc1)NC(=O)[C@H](CCCCN)NC(=O)[C@H](CO)NC(=O)[C@H](Cc1ccc(O)cc1)NC(=O)[C@H](CC(=O)O)NC(=O)[C@H](CO)NC(=O)[C@@H](NC(=O)[C@H](Cc1ccccc1)NC(=O)[C@@H](NC(=O)CNC(=O)[C@H](Cc1c[nH]cn1)NC(=O)[C@H](CO)NC(=O)[C@@H](N)Cc1ccc(O)cc1)[C@@H](C)O)[C@@H](C)O)C(=O)N[C@@H](CCCCN)C(=O)N[C@@H](CO)C(=O)N[C@@H](C)C(=O)N[C@@H](CCC(N)=O)C(=O)N[C@@H](CCC(=O)O)C(=O)N[C@@H](Cc1ccccc1)C(=O)N[C@H](C(=O)NC(C)(C)C(=O)N[C@@H](Cc1c[nH]c2ccccc12)C(=O)N[C@@H](CC(C)C)C(=O)N[C@@H](CCC(=O)O)C(=O)N[C@@H](CC(=O)O)C(=O)N[C@@H](CCC(=O)O)C(=O)N1CCC[C@H]1C(=O)N[C@@H](CO)C(=O)N[C@@H](CO)C(=O)NCC(=O)N[C@@H](C)C(=O)N1CCC[C@H]1C(=O)N1CCC[C@H]1C(=O)N1CCC[C@H]1C(=O)N[C@@H](CO)C(=O)O)C(C)C)C(=O)O` [Compound B11], the EC50 at human GLP-1R (setting [1]) is 501 nM; on human GCGR (setting [2]), 0.0501 nM.

Consider `CC(C)C[C@H](NC(=O)[C@H](Cc1c[nH]c2ccccc12)NC(=O)[C@H](CCCCNC(=O)COCCOCCNC(=O)COCCOCCNC(=O)CC[C@H](NC(=O)CCCCCCCCCCCCCCCCC(=O)O)C(=O)O)NC(=O)[C@@H](NC(=O)[C@H](Cc1ccccc1)NC(=O)[C@H](CCC(=O)O)NC(=O)[C@H](CCC(N)=O)NC(=O)[C@H](C)NC(=O)[C@H](Cc1ccc(O)cc1)NC(=O)[C@H](CCCCN)NC(=O)C(C)(C)NC(=O)[C@H](CC(=O)O)NC(=O)[C@H](CC(C)C)NC(=O)[C@H](Cc1ccc(O)cc1)NC(=O)[C@H](CCCCN)NC(=O)[C@H](CO)NC(=O)[C@H](Cc1ccc(O)cc1)NC(=O)[C@H](CC(=O)O)NC(=O)[C@H](CO)NC(=O)[C@@H](NC(=O)[C@H](Cc1ccccc1)NC(=O)[C@@H](NC(=O)CNC(=O)[C@H](Cc1c[nH]cn1)NC(=O)[C@H](CO)NC(=O)[C@@H](N)Cc1ccc(O)cc1)[C@@H](C)O)[C@@H](C)O)C(C)C)C(=O)N[C@@H](CCC(=O)O)C(=O)N[C@@H](CC(=O)O)C(=O)N[C@@H](CCC(=O)O)C(=O)N1CCC[C@H]1C(=O)N[C@@H](CO)C(=O)N[C@@H](CO)C(=O)NCC(=O)N[C@@H](C)C(=O)N1CCC[C@H]1C(=O)N1CCC[C@H]1C(=O)N1CCC[C@H]1C(=O)N[C@@H](CO)C(=O)O` [Compound B6], for which the EC50 was over 1000 nM at human GLP-1R (setting [1]) and 0.0794 nM on human GCGR (setting [2]).

In the case of `CC(C)C[C@H](NC(=O)[C@H](Cc1ccc(O)cc1)NC(=O)[C@H](CCCCN)NC(=O)[C@H](CO)NC(=O)[C@H](Cc1ccc(O)cc1)NC(=O)[C@H](CC(=O)O)NC(=O)[C@H](CO)NC(=O)[C@@H](NC(=O)[C@H](Cc1ccccc1)NC(=O)[C@@H](NC(=O)CNC(=O)[C@H](Cc1c[nH]cn1)NC(=O)[C@H](CO)NC(=O)[C@@H](N)Cc1ccc(O)cc1)[C@@H](C)O)[C@@H](C)O)C(=O)N[C@@H](CC(=O)O)C(=O)NC(C)(C)C(=O)N[C@@H](CCCCN)C(=O)N[C@@H](CCCNC(=N)N)C(=O)N[C@@H](C)C(=O)N[C@@H](CCC(N)=O)C(=O)N[C@@H](CCC(=O)O)C(=O)N[C@@H](Cc1ccccc1)C(=O)N[C@H](C(=O)NC(C)(C)C(=O)N[C@@H](Cc1c[nH]c2ccccc12)C(=O)N[C@@H](CC(C)C)C(=O)N[C@@H](CCC(=O)O)C(=O)N[C@@H](CC(=O)O)C(=O)N[C@@H](CCC(=O)O)C(=O)N[C@@H](CCC(=O)O)C(=O)N1CCC[C@H]1C(=O)N[C@@H](CO)C(=O)N[C@@H](CO)C(=O)NCC(=O)N[C@@H](C)C(=O)N1CCC[C@H]1C(=O)N1CCC[C@H]1C(=O)N1CCC[C@H]1C(=O)N[C@@H](CO)C(=O)O)C(C)C` [Compound A10] (H-YSHGTFTSDYSKYLD[Aib]KRAQEFV[Aib]WLEDEEPSSGAPPPS-OH; N-terminus assumed), the EC50 at human GLP-1R (setting [3]) was over 1 nM; on human GCGR (Table 3), 0.00501 nM.

In the case of `CC(C)C[C@H](NC(=O)[C@H](Cc1ccc(O)cc1)NC(=O)[C@H](CCCCN)NC(=O)[C@H](CO)NC(=O)[C@H](Cc1ccc(O)cc1)NC(=O)[C@H](CC(=O)O)NC(=O)[C@H](CO)NC(=O)[C@@H](NC(=O)[C@H](Cc1ccccc1)NC(=O)[C@@H](NC(=O)CNC(=O)[C@H](Cc1c[nH]cn1)NC(=O)[C@H](CO)NC(=O)[C@@H](N)Cc1ccc(O)cc1)[C@@H](C)O)[C@@H](C)O)C(=O)N[C@@H](CC(=O)O)C(=O)NC(C)(C)C(=O)N[C@@H](CCCCN)C(=O)N[C@@H](CCCNC(=N)N)C(=O)N[C@@H](C)C(=O)N[C@@H](CCC(N)=O)C(=O)N[C@@H](CCC(=O)O)C(=O)N[C@@H](Cc1ccccc1)C(=O)N[C@H](C(=O)NC(C)(C)C(=O)N[C@@H](Cc1c[nH]c2ccccc12)C(=O)N[C@@H](CC(C)C)C(=O)N[C@@H](CCC(=O)O)C(=O)N[C@@H](CC(=O)O)C(=O)N[C@@H](CCC(=O)O)C(=O)N[C@@H](CCC(=O)O)C(=O)N[C@@H](CCC(=O)O)C(=O)N1CCC[C@H]1C(=O)N[C@@H](CO)C(=O)N[C@@H](CO)C(=O)NCC(=O)N[C@@H](C)C(=O)N1CCC[C@H]1C(=O)N1CCC[C@H]1C(=O)N1CCC[C@H]1C(=O)N[C@@H](CO)C(=O)O)C(C)C` [Compound A11] (H-YSHGTFTSDYSKYLD[Aib]KRAQEFV[Aib]WLEDEEEPSSGAPPPS-OH; N-terminus assumed), the EC50 at human GLP-1R (setting [3]) is over 1 nM; at human GCGR (Table 3), 0.00631 nM.

As for `CC(C)C[C@H](NC(=O)[C@H](Cc1ccc(O)cc1)NC(=O)[C@H](CCCCN)NC(=O)[C@H](CO)NC(=O)[C@H](CCCCNC(=O)COCCOCCNC(=O)COCCOCCNC(=O)CC[C@H](NC(=O)CCCCCCCCCCCCCCCCC(=O)O)C(=O)O)NC(=O)[C@H](CC(=O)O)NC(=O)[C@H](CO)NC(=O)[C@@H](NC(=O)[C@H](Cc1ccccc1)NC(=O)[C@@H](NC(=O)CNC(=O)[C@H](Cc1c[nH]cn1)NC(=O)[C@H](CO)NC(=O)[C@@H](N)Cc1ccc(O)cc1)[C@@H](C)O)[C@@H](C)O)C(=O)N[C@@H](CC(=O)O)C(=O)NC(C)(C)C(=O)N[C@@H](CCCCN)C(=O)N[C@@H](Cc1ccc(O)cc1)C(=O)N[C@@H](C)C(=O)N[C@@H](CCC(N)=O)C(=O)N[C@@H](CCC(=O)O)C(=O)N[C@@H](Cc1ccccc1)C(=O)N[C@H](C(=O)NC(C)(C)C(=O)N[C@@H](Cc1c[nH]c2ccccc12)C(=O)N[C@@H](CC(C)C)C(=O)N[C@@H](CCC(=O)O)C(=O)N[C@@H](CC(=O)O)C(=O)N[C@@H](CCC(=O)O)C(=O)N1CCC[C@H]1C(=O)N[C@@H](CO)C(=O)N[C@@H](CO)C(=O)NCC(=O)N[C@@H](C)C(=O)N1CCC[C@H]1C(=O)N1CCC[C@H]1C(=O)N1CCC[C@H]1C(=O)N[C@@H](CO)C(=O)O)C(C)C` [Compound B8] (H-YSHGTFTSDK([AEEA-AEEA-γGlu-C18 diacid])SKYLD[Aib]KYAQEFV[Aib]WLEDEPSSGAPPPS-OH), the figures for the EC50 at human GLP-1R (setting [1]) and at human GCGR (setting [2]) were over 1000 nM and 0.0251 nM, respectively.
